Marks after values point to notes of the source that are not given here.
Test system: honey bee (Apis mellifera L.) colony
Test: Influence of 2-heptanone on honey bee colony behavior (two-frame observation hive)
Assay type: in vivo
Description: Tests were conducted with 2-heptanone in pure form and in a 30% concentration in acrylic block made as in Example 6 to determine its effects on the honey bee (Apis mellifera L.) colony behavior. A two-frame observation hive (the hive had one frame on the bottom with adult worker bees and brood and a top frame with adult worker bees and honey) with a laying queen was used for the study. […] Within 4 hours the 2-heptanone had evaporated, and the bees returned to the frame, and the fanning stopped.
To test the effects of 2-heptanone in acrylic blocks, we again conducted studies using two frame observation hives arranged as described above. For one week prior to inserting the acrylic blocks, we measured queen ovipositions, and the number of workers bees leaving the hive per 5-minute interval in four observation colonies. We also counted the number of workers in a court surrounding the queen once during the 5-minute interval. We then added one acrylic block dispenser with a surface area of 8.04 cm^2 containing a 30% concentration of 2-heptanone. […] The latter served as Controls.

[1] = filter paper with 40 μl of pure 2-heptanone

CCCCCC(C)=O [2-Heptanone]
immediate effect on the bees on the frames (acrylic block 8.04 cm^2, 30% 2-heptanone): no immediate effect on the bees on the frames
Ovipositions, Post-Treatment (acrylic block 8.04 cm^2, 30% 2-heptanone, average per 5-minute interval, pretreatment 5.3): 5.3
Workers in court, Post-Treatment (acrylic block 8.04 cm^2, 30% 2-heptanone, average per 5-minute interval, pretreatment 10.2): 10.2
Foragers leaving, Post-Treatment (acrylic block 8.04 cm^2, 30% 2-heptanone, average per 5-minute interval, pretreatment 16.1, significantly different p = 0.05): 23.6*
bee behavior after placing 2-heptanone in observation colony [1]: all the bees moved off of the frame and began to fan
time until 2-heptanone evaporated, bees returned to the frame and fanning stopped [1]: ≤ 4 h

Source: patent publication US7423068B2, “Control of parasitic mites of honey bees” (The United States of America as represented by the …, priority 2001, dated 2008)
